Measured values published in patent US7205305B2, “Inhibitors of p38” (Vertex Pharmaceuticals Incorporated, priority 1996, dated 2007).

Legend:
[1] = target: activated p38 (Homo sapiens, UniProt Q16539); assay: Inhibition of phosphorylation of EGF receptor peptide ("kinase"); assay type: biochemical; conditions: inhibition of phosphorylation of EGF receptor peptide by activated p38
Protocol: This assay was carried out in the presence of 10 mM MgCl2, 25 mM β-glycerophosphate, 10% glycerol and 100 mM HEPES buffer at pH 7.6. […] The stock solution was aliquotted into vials. A fixed volume of DMSO or inhibitor in DMSO (final concentration of DMSO in reaction was 5%) was introduced to each vial, mixed and incubated for 15 minutes at room temperature. EGF receptor peptide, […], a phosphoryl acceptor in p38-catalyzed kinase reaction (1), was added to each vial to a final concentration of 200 μM. The kinase reaction was initiated with ATP (100 μM) and the vials were incubated at 30° C. After 30 minutes, the reactions were quenched with equal volume of 10% trifluoroacetic acid (TFA).
The phosphorylated peptide was quantified by HPLC analysis. Separation of phosphorylated peptide from the unphosphorylated peptide was achieved on a reverse phase column (Deltapak, 5 μm, C18 100D, part no. 011795) with a binary gradient of water and acteonitrile, each containing 0.1% TFA.

[2] = system: IL-1 production in LPS-stimulated PBMCs; assay: Inhibition of IL-1 production in LPS-stimulated PBMCs ("cell"); assay type: cell-based, human; conditions: Homo sapiens, PBMC
Protocol: (§1) Inhibitors were serially diluted in DMSO from a 20 mM stock. At least 6 serial dilutions were prepared. Then 4× inhibitor stocks were prepared by adding 4 μl of an inhibitor dilution to 1 ml of RPMI1640 medium/10% fetal bovine serum. The 4× inhibitor stocks contained inhibitor at concentrations of 80 μM, 32 μM, 12.8 μM, 5.12 μM, 2.048 μM, 0.819 μM, 0.328 μM, 0.131 μM, 0.052 μM, 0.021 μM etc. The 4× inhibitor stocks were pre-warmed at 37° C. until use.
(§2) Fresh human blood buffy cells were separated from other cells in a Vacutainer CPT from Becton & Dickinson (containing 4 ml blood and enough DPBS without Mg^2+/Ca^2+ to fill the tube) by centrifugation at 1500×g for 15 min. Peripheral blood mononuclear cells (PBMCs), located on top of the gradient in the Vacutainer, were removed and washed twice with RPMI1640 medium/10% fetal bovine serum. PBMCs were collected by centrifugation at 500×g for 10 min. The total cell number was determined using a Neubauer Cell Chamber and the cells were adjusted to a concentration of 4.8×10^6 cells/ml in cell culture medium (RPMI1640 supplemented with 10% fetal bovine serum).
(§3) We placed 100 μl of cell suspension or whole blood in each well of a 96-well cell culture plate. Then we added 50 μl of the 4× inhibitor stock to the cells. Finally, we added 50 μl of a lipopolysaccharide (LPS) working stock solution (16 ng/ml in cell culture medium) to give a final concentration of 4 ng/ml LPS in the assay. The total assay volume of the vehicle control was also adjusted to 200 μl by adding 50 μl cell culture medium. The PBMC cells or whole blood were then incubated overnight (for 12–15 hours) at 37° C./5% CO2 in a humidified atmosphere.
(§4) The next day the cells were mixed on a shaker for 3–5 minutes before centrifugation at 500×g for 5 minutes. Cell culture supernatants were harvested and analyzed by ELISA for levels of IL-1b (R & D Systems, Quantikine kits, #DBL50), TNF-α (BioSource, #KHC3012), IL-6 (Endogen, #EH2-IL6) and IL-8 (Endogen, #EH2-IL8) according to the instructions of the manufacturer. The ELISA data were used to generate dose-response curves from which IC50 values were derived.

[3] = system: TNF production in LPS-stimulated PBMCs; assay: Inhibition of TNF production in LPS-stimulated PBMCs ("cell"); assay type: cell-based, human; conditions: Homo sapiens, PBMC
Protocol: as §1, §2, §3, §4

Chain of activated p38 (Q16539 whole entry): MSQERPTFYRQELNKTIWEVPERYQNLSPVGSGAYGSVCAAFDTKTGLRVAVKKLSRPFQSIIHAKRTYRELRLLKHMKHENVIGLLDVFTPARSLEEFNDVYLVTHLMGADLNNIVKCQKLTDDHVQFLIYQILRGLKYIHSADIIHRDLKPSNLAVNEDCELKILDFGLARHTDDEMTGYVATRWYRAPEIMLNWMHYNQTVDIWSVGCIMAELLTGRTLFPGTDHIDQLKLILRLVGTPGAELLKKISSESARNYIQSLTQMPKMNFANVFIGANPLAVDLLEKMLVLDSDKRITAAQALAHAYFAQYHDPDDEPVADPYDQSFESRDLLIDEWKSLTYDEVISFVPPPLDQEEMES

| SMILES | IC50 [1] [nM] | IC50 [2] [nM] | IC50 [3] [nM] |
| --- | --- | --- | --- |
| O=c1ncn2nc(Sc3ccccc3)ccc2c1-c1ccccc1Cl [Compound 7] | ≥ 1000 | ≥ 500 | ≥ 500 |
| Cc1ccccc1-c1c(=O)ncn2nc(Sc3ccccc3)ccc12 [Compound 8] | ≥ 1000 | ≥ 500 | ≥ 500 |
| O=c1ncn2nc(Sc3ccccc3)ccc2c1-c1ccc(Cl)c(Cl)c1 [Compound 9] | ≥ 1000 | ≥ 500 | ≥ 500 |
| COc1ccccc1-c1c(=O)ncn2nc(Sc3ccccc3)ccc12 [Compound 11] | ≥ 1000 | ≥ 500 | ≥ 500 |
| Cc1c(Sc2ccccc2)nn2cnc(=O)c(-c3c(Cl)cccc3Cl)c2c1C [Compound 13] | ≥ 1000 | ≥ 500 | ≥ 500 |
| Cc1ccc(Sc2ccc3c(-c4c(Cl)cccc4Cl)c(=O)ncn3n2)cc1 [Compound 14] | ≥ 1000 | 100 to 500 | ≥ 500 |
| Cc1cccc(Sc2ccc3c(-c4c(Cl)cccc4Cl)c(=O)ncn3n2)c1 [Compound 15] | ≥ 1000 | 100 to 500 | 100 to 500 |
| O=c1ncn2nc(Sc3ccc(Cl)c(Cl)c3)ccc2c1-c1c(Cl)cccc1Cl [Compound 16] | 100 to 1000 | ≥ 500 | 100 to 500 |
| O=c1ncn2nc(Sc3ccccc3)ccc2c1-c1c(F)cccc1F [Compound 17] | ≥ 1000 | ≥ 500 | ≥ 500 |
| CC(C)c1ccccc1Sc1ccc2c(-c3c(Cl)cccc3Cl)c(=O)ncn2n1 [Compound 18] | ≥ 1000 | ≥ 500 | ≥ 500 |
| Cc1ccc(Sc2ccc3c(-c4c(Cl)cccc4Cl)c(=O)ncn3n2)cc1C [Compound 19] | ≥ 1000 | ≥ 500 | ≥ 500 |
| CCc1ccccc1Sc1ccc2c(-c3c(Cl)cccc3Cl)c(=O)ncn2n1 [Compound 20] | 100 to 1000 | ≥ 500 | ≥ 500 |
| O=c1ncn2nc(Sc3cccc(F)c3)ccc2c1-c1c(Cl)cccc1Cl [Compound 21] | 100 to 1000 | 100 to 500 | ≥ 500 |
| O=c1ncn2nc(Sc3ccccc3)ccc2c1-c1c(F)cccc1C(F)(F)F [Compound 22] | ≥ 1000 | ≥ 500 | ≥ 500 |
| O=c1ncn2nc(Sc3cccc(Cl)c3)ccc2c1-c1c(Cl)cccc1Cl [Compound 25] | 100 to 1000 | 100 to 500 | ≥ 500 |
| Cc1cc(Cl)ccc1Sc1ccc2c(-c3c(Cl)cccc3Cl)c(=O)ncn2n1 [Compound 28] | 100 to 1000 | 100 to 500 | 100 to 500 |
| O=c1ncn2nc(Sc3ccccc3Br)ccc2c1-c1c(Cl)cccc1Cl [Compound 29] | 100 to 1000 | 100 to 500 | 100 to 500 |
| CN(C)C(=O)c1ccccc1Sc1ccc2c(-c3c(Cl)cccc3Cl)c(=O)ncn2n1 [Compound 31] | ≥ 1000 | ≥ 500 | ≥ 500 |
| O=c1ncn2nc(Sc3ccc(F)cc3[N+](=O)[O-])ccc2c1-c1c(Cl)cccc1Cl [Compound 34] | ≥ 1000 | ≥ 500 | ≥ 500 |
| O=c1ncn2nc(Sc3ccc(F)cc3)ccc2c1-c1cc2c(cc1Cl)OCO2 [Compound 39] | 100 to 1000 | ≥ 500 | ≥ 500 |
| Cc1nc(=O)c(-c2c(Cl)cccc2Cl)c2ccc(Sc3ccc(F)c(Cl)c3)nn12 [Compound 40] | 100 to 1000 | 100 to 500 | ≥ 500 |
| Cc1cc(Sc2ccc3c(-c4c(Cl)cccc4Cl)c(=O)ncn3n2)c(Cl)cc1F [Compound 41] | ≤ 100 | ≤ 100 | ≤ 100 |
| COc1cc(Cl)c(-c2c(=O)ncn3nc(Sc4ccc(F)cc4)ccc23)cc1OC [Compound 43] | 100 to 1000 | ≥ 500 | ≥ 500 |
| Cc1cc(Cl)c(-c2c(=O)ncn3nc(Sc4ccc(F)cc4)ccc23)cc1C [Compound 44] | 100 to 1000 | ≥ 500 | ≥ 500 |

| SMILES | IC50 [1] [nM] | IC50 [2] [nM] | IC50 [3] [nM] |
| --- | --- | --- | --- |
| Nc1ccc(-c2c(=O)ncn3nc(Sc4ccc(F)cc4)ccc23)c(Cl)c1 [Compound 46] | 100 to 1000 | ≥ 500 | ≥ 500 |
| COc1ccc(-c2c(=O)ncn3nc(Sc4ccc(F)cc4)ccc23)c(Cl)c1 [Compound 47] | 100 to 1000 | 100 to 500 | ≥ 500 |
| CN(C)/C=N\c1ccc(-c2c(=O)ncn3nc(Sc4ccc(F)cc4Cl)ccc23)c(Cl)c1 [Compound 48] | 100 to 1000 | 100 to 500 | ≥ 500 |
| NC(=O)c1ccccc1SC1=NN2CNC(=O)C(c3c(Cl)cccc3Cl)=C2C=C1 [Compound 105] | 100 to 1000 | ≥ 500 | ≥ 500 |
| O=C1NCN2N=C(Sc3ccccn3)C=CC2=C1c1c(Cl)cccc1Cl [Compound 107] | 100 to 1000 | ≥ 500 | ≥ 500 |
| O=C1NCN2C=C(Sc3ccccc3)C=CC2=C1c1c(Cl)cccc1Cl [Compound 110] | 100 to 1000 | ≥ 500 | ≥ 500 |
| O=C1NCN2C=C(Sc3ccc(F)cc3)C=CC2=C1c1c(Cl)cccc1Cl [Compound 111] | 100 to 1000 | ≥ 500 | ≥ 500 |
| N=C(N)Nc1cc(F)c(F)cc1SC1=NN2CNC(=O)C(c3c(Cl)cccc3Cl)=C2C=C1 [Compound 124] | ≥ 1000 | ≥ 500 | ≥ 500 |
| Nc1cc(C(F)(F)F)ccc1SC1=NN2CNC(=O)C(c3c(Cl)cccc3Cl)=C2C=C1 [Compound 126] | ≥ 1000 | 100 to 500 | ≥ 500 |
| NC(=O)Nc1cc(F)ccc1SC1=NN2CNC(=O)C(c3c(Cl)cccc3Cl)=C2C=C1 [Compound 128] | ≥ 1000 | ≥ 500 | ≥ 500 |
| O=C1NCN2N=C(Sc3ccccc3)C=CC2=C1c1c(F)cccc1F [Compound 130] | ≤ 100 | 100 to 500 | ≥ 500 |
| Cc1cc(F)ccc1SC1=NN2CNC(=O)C(c3c(Cl)cccc3Cl)=C2C=C1 [Compound 131] | ≤ 100 | ≤ 100 | ≤ 100 |
| Nc1ccc(F)c(C2=C3C=CC(Sc4ccc(F)cc4)=NN3CNC2=O)c1Cl [Compound 132] | ≤ 100 | ≤ 100 | 100 to 500 |
| Cc1cc(SC2=NN3CNC(=O)C(c4c(Cl)cccc4Cl)=C3C=C2)c(Cl)cc1F [Compound 133] | ≤ 100 | ≤ 100 | ≤ 100 |
| COc1cc(Cl)c(C2=C3C=CC(Sc4ccc(F)cc4)=NN3CNC2=O)cc1OC [Compound 134] | ≤ 100 | 100 to 500 | ≥ 500 |
| Cc1cc(Cl)ccc1Sc1ccc(C(C(N)=O)c2c(Cl)cccc2Cl)nn1 (stereo not shown) [Compound 206] | 100 to 1000 | ≥ 500 | ≥ 500 |
| NC(=O)C(c1ccc(C(O)c2ccccc2)cn1)c1c(Cl)cccc1Cl (stereo not shown) [Compound 208] |  | 100 to 500 |  |
| NC(=O)C(c1ccc(C(=O)c2ccccc2)cn1)c1c(Cl)cccc1Cl (stereo not shown) [Compound 209] |  | ≥ 500 |  |
| NC(=O)C(c1cccc(-c2ccc(Cl)cc2)n1)c1c(Cl)cccc1Cl (stereo not shown) [Compound 310] | 100 to 1000 | ≥ 500 | ≥ 500 |
| Cc1ccc(-c2cccc(C(C(N)=O)c3c(Cl)cccc3Cl)n2)cc1 (stereo not shown) [Compound 311] | 100 to 1000 | ≥ 500 | ≥ 500 |
| NC(=O)C(c1cccc(-c2ccc(F)c(Cl)c2)n1)c1c(Cl)cccc1Cl (stereo not shown) [Compound 313] | 100 to 1000 | ≥ 500 | ≥ 500 |
| NC(=O)C(c1cccc(-c2cccs2)n1)c1c(Cl)cccc1Cl (stereo not shown) [Compound 317] | ≥ 1000 | ≥ 500 | ≥ 500 |
| COc1ccc(-c2cccc(C(C(N)=O)c3c(Cl)cccc3Cl)n2)cc1 (stereo not shown) [Compound 352] | ≥ 1000 | ≥ 500 |  |
